# Experimental data reported in US12077503B2, “Substituted cyclic amides and their use as herbicides” (FMC CORPORATION, priority 2015, dated 2024).
# Experiments:
# Assay type in all cases: in vivo
# [1] = tested on: ducksalad (Heteranthera limosa); assay: Test B flooded paddy test; details: Heteranthera limosa, 250 g ai/ha, Flood; 0 to 100 scale where 0 is no effect and 100 is complete control; read-out: Ducksalad plant response rating
# In short: (§1)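 Greenhouse paddy pots with 2-leaf stage plants received compound by direct addition to floodwater 3 cm deep, kept at that level. Scored visually at 13–15 d versus controls (0 no effect; 100 complete control).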
# [2] = tested on: barnyardgrass (Echinochloa crus-galli); assay: Test B flooded paddy test; details: Echinochloa crus-galli, 250 g ai/ha, Flood; 0 to 100 scale where 0 is no effect and 100 is complete control; read-out: Barnyardgrass plant response rating
# In short: as §1
# [3] = tested on: sedge, umbrella (small-flower umbrella sedge, Cyperus difformis); assay: Test B flooded paddy test; details: Cyperus difformis, 250 g ai/ha, Flood; 0 to 100 scale where 0 is no effect and 100 is complete control; read-out: Sedge, Umbrella plant response rating
# In short: as §1
# rice (Oryra sativa) = assay: Test B flooded paddy test; details: Oryza sativa, 250 g ai/ha, Flood; 0 to 100 scale where 0 is no effect and 100 is complete control; read-out: Rice plant response rating
# In short: as §1
# [4] = tested on: giant foxtail (Setaria faberii); assay: Test A postemergence; details: Setaria faberi, post-emergence, 240 h, read-out: Foxtail, Giant plant response rating (0 to 100 scale)
# In short: (§2)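 Compounds were formulated in a non-phytotoxic solvent mixture with surfactant and applied as a preemergence directed soil spray after seeding, or sprayed postemergence over plants 2 to 10 cm tall at the one- to two-leaf stage. Evaluation after about 10 d compared treated with untreated controls, using a scale from 0 (no effect) to 100 (complete control).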
# [5] = tested on: ragweed (common ragweed, Ambrosia elatior); assay: Test A postemergence; details: Ambrosia artemisiifolia, post-emergence, 240 h, read-out: Ragweed plant response rating (0 to 100 scale)
# In short: as §2
# corn (Zea mays) = assay: Test A postemergence; details: Zea mays, post-emergence, 240 h, read-out: Corn plant response rating (0 to 100 scale)
# In short: as §2
# [6] = tested on: ryegrass, Italian (Italian ryegrass, Lolium multiflorum); assay: Test A postemergence; details: Lolium multiflorum, post-emergence, 240 h, read-out: Ryegrass, Italian plant response rating (0 to 100 scale)
# In short: as §2
# [7] = tested on: barnyardgrass (Echinochloa crus-galli); assay: Test A postemergence; details: Echinochloa crus-galli, post-emergence, 240 h, read-out: Barnyardgrass plant response rating (0 to 100 scale)
# In short: as §2
# [8] = tested on: pigweed (Amaranthus retroflexus); assay: Test A postemergence; details: Amaranthus retroflexus, post-emergence, 240 h, read-out: Pigweed plant response rating (0 to 100 scale)
# In short: as §2
# [9] = tested on: Galium (catchweed bedstraw, Galium aparine); assay: Test A postemergence; details: Galium, post-emergence, 240 h, read-out: Galium plant response rating (0 to 100 scale)
# In short: as §2
# [10] = tested on: blackgrass (Alopecurus myosuroides); assay: Test A postemergence; details: Alopecurus myosuroides, post-emergence, 240 h, read-out: Blackgrass plant response rating (0 to 100 scale)
# In short: as §2
# [11] = tested on: wheat (Triticum aestivum); assay: Test A postemergence; details: Triticum aestivum, post-emergence, 240 h, read-out: Wheat plant response rating (0 to 100 scale)
# In short: as §2
# Kochia (Kochia scoparia) [12] = assay: Test A postemergence; details: Bassia scoparia, post-emergence, 240 h, read-out: Kochia plant response rating (0 to 100 scale)
# In short: as §2
# [13] = tested on: giant foxtail (Setaria faberii); assay: Test A preemergence; details: Setaria faberi, pre-emergence, 240 h, 0 to 100 scale where 0 is no effect and 100 is complete control, read-out: Foxtail, Giant plant response rating
# In short: as §2
# [14] = tested on: ragweed (common ragweed, Ambrosia elatior); assay: Test A preemergence; details: Ambrosia artemisiifolia, pre-emergence, 240 h, 0 to 100 scale where 0 is no effect and 100 is complete control, read-out: Ragweed plant response rating
# In short: as §2
# [15] = tested on: ryegrass, Italian (Italian ryegrass, Lolium multiflorum); assay: Test A preemergence; details: Lolium multiflorum, pre-emergence, 240 h, 0 to 100 scale where 0 is no effect and 100 is complete control, read-out: Ryegrass, Italian plant response rating
# In short: as §2
# [16] = tested on: barnyardgrass (Echinochloa crus-galli); assay: Test A preemergence; details: Echinochloa crus-galli, pre-emergence, 240 h, 0 to 100 scale where 0 is no effect and 100 is complete control, read-out: Barnyardgrass plant response rating
# In short: as §2
# [17] = tested on: pigweed (Amaranthus retroflexus); assay: Test A preemergence; details: Amaranthus retroflexus, pre-emergence, 240 h, 0 to 100 scale where 0 is no effect and 100 is complete control, read-out: Pigweed plant response rating
# Kochia (Kochia scoparia) [18] = assay: Test A preemergence; details: Bassia scoparia, pre-emergence, 240 h, 0 to 100 scale where 0 is no effect and 100 is complete control, read-out: Kochia plant response rating
# In short: as §2
# [19] = 125 g ai/ha, postemergence, visual injury vs untreated controls after approx. 10 d, 0 = no effect, 100 = complete control
# [20] = Postemergence, 31 g ai/ha, 0 is no effect, 100 is complete control
# [21] = 125 g ai/ha, preemergence, visual injury rating, approximately 10 d
smiles,measurement,setting,value
N#Cc1ccc([C@H]2CNC(=O)[C@@H]2C(=O)Nc2ccccc2F)cc1F [Compound 1191],pest or weed control at 250 g/ha,[1],90%
same,pest or weed control at 250 g/ha,[2],0%
same,pest or weed control at 250 g/ha,[3],0%
same,pest or weed control at 250 g/ha,rice (Oryra sativa),10%
same,pest or weed control at 125 g/ha,[4]; [19],0%
same,pest or weed control at 31 g/ha,[4]; [20],0%
same,pest or weed control at 125 g/ha,[5]; [19],0%
same,pest or weed control at 31 g/ha,[5]; [20],0%
same,plant injury at 125 g/ha,corn (Zea mays); [19],0%
same,plant injury at 31 g/ha,corn (Zea mays); [20],0%
same,pest or weed control at 125 g/ha,[6]; [19],0%
same,pest or weed control at 31 g/ha,[6]; [20],0%
same,pest or weed control at 125 g/ha,[7]; [19],0%
same,pest or weed control at 31 g/ha,[7]; [20],0%
same,pest or weed control at 125 g/ha,[8]; [19],0%
same,pest or weed control at 31 g/ha,[8]; [20],0%
same,pest or weed control at 125 g/ha,[9]; [19],0%
same,pest or weed control at 31 g/ha,[9]; [20],0%
same,pest or weed control at 125 g/ha,[10]; [19],0%
same,pest or weed control at 31 g/ha,[10]; [20],0%
same,plant injury at 125 g/ha,[11]; [19],0%
same,plant injury at 31 g/ha,[11]; [20],0%
same,pest or weed control at 125 g/ha,Kochia (Kochia scoparia) [12]; [19],0%
same,pest or weed control at 31 g/ha,Kochia (Kochia scoparia) [12]; [20],0%
same,pest or weed control at 31 g/ha,"[13]; 31 g ai/ha, Preemergence",0%
same,pest or weed control at 125 g/ha,[13]; [21],0%
same,pest or weed control at 31 g/ha,"[14]; 31 g ai/ha, Preemergence",0%
same,pest or weed control at 125 g/ha,[14]; [21],0%
same,pest or weed control at 31 g/ha,"[15]; 31 g ai/ha, Preemergence",0%
same,pest or weed control at 125 g/ha,[15]; [21],0%
same,pest or weed control at 31 g/ha,"[16]; 31 g ai/ha, Preemergence",0%
same,pest or weed control at 125 g/ha,[16]; [21],0%
same,pest or weed control at 31 g/ha,"[17]; 31 g ai/ha, Preemergence",0%
same,pest or weed control at 125 g/ha,[17]; [21],0%
same,pest or weed control at 31 g/ha,"Kochia (Kochia scoparia) [18]; 31 g ai/ha, Preemergence",0%
same,pest or weed control at 125 g/ha,Kochia (Kochia scoparia) [18]; [21],0%
